Data taken from ChEMBL document CHEMBL3232945 (Eur J Med Chem, 2014).

Experiments:
Rattus norvegicus [1] = test: Toxicity in anesthetized-normotensive Wistar rat assessed as heart rate at 40 mg/kg, ip after 15 mins (reference value: 313.93 +/- 9.912 bpm); format: organism-based; parameters: dose 40 mg/kg, route intraperitoneal; conditions: in vivo, 0.25 h
Rattus norvegicus [2] = test: Toxicity in anaesthetized-Wistar rat assessed as QRS ECG interval at 40 mg/kg, ip after 15 mins (reference value: 18.9 +/- 1.563 ms); format: organism-based; parameters: dose 40 mg/kg, route intraperitoneal; conditions: in vivo, 0.25 h
Rattus norvegicus [3] = test: Toxicity in anaesthetized-Wistar rat assessed as P-Q ECG interval at 40 mg/kg, ip after 60 mins (reference value: […] +/- 0.924 ms); format: organism-based; parameters: dose 40 mg/kg, route intraperitoneal; conditions: in vivo, 1 h
Rattus norvegicus [4] = test: Toxicity in anaesthetized-Wistar rat assessed as QRS ECG interval at 40 mg/kg, ip after 45 mins (reference value: 20.2 +/- 1.348 ms); format: organism-based; parameters: dose 40 mg/kg, route intraperitoneal; conditions: in vivo, 0.75 h
Rattus norvegicus [5] = test: Toxicity in anesthetized-normotensive Wistar rat assessed as heart rate at 40 mg/kg, ip after 45 mins (reference value: 316.82 +/- 8.452 bpm); format: organism-based; parameters: dose 40 mg/kg, route intraperitoneal; conditions: in vivo, 0.75 h
Rattus norvegicus [6] = test: Antiarrhythmic activity in barium chloride-induced Wistar rat assessed as increase in mortality time at 40 mg/kg, ip administered 60 mins before barium chloride challenge (reference value: 682.8 +/- 9.656 secs); format: functional, Heart; conditions: route intraperitoneal
Rattus norvegicus [7] = test: Toxicity in anaesthetized-Wistar rat assessed as P-Q ECG interval at 40 mg/kg, ip after 15 mins (reference value: 52.2 +/- 1.158 ms); format: organism-based; parameters: dose 40 mg/kg, route intraperitoneal; conditions: in vivo, 0.25 h
Rattus norvegicus [8] = test: Toxicity in […] normotensive Wistar rat assessed as mean arterial pressure at 40 mg/kg, ip after 45 mins (reference value: 94.83 +/- 0.943 mmHg); format: organism-based, Artery; parameters: dose 40 mg/kg, route intraperitoneal; conditions: in vivo, 0.75 h
Rattus norvegicus [9] = test: Toxicity in anesthetized-normotensive Wistar rat assessed as heart rate at 40 mg/kg, ip after 30 mins (reference value: 317.68 +/- 7.631 bpm); format: organism-based; parameters: dose 40 mg/kg, route intraperitoneal; conditions: in vivo, 0.5 h
Rattus norvegicus [10] = test: Toxicity in anaesthetized-Wistar rat assessed as Q-T ECG interval at 40 mg/kg, ip after 45 mins (reference value: 78.8 +/- 0.927 ms); format: organism-based; parameters: dose 40 mg/kg, route intraperitoneal; conditions: in vivo, 0.75 h
Rattus norvegicus [11] = test: Antihypertensive activity in Wistar rat assessed as mean arterial pressure at 40 mg/kg, ip after 15 mins (reference value: 195.68 +/- 1.623 mmHg); format: functional, Artery; conditions: route intraperitoneal
Rattus norvegicus [12] = test: Toxicity in […] normotensive Wistar rat assessed as mean arterial pressure at 40 mg/kg, ip after 15 mins (reference value: 93.81 +/- 1.543 mmHg); format: organism-based, Artery; parameters: dose 40 mg/kg, route intraperitoneal; conditions: in vivo, 0.25 h
Rattus norvegicus [13] = test: Toxicity in anesthetized-normotensive Wistar rat assessed as heart rate at 40 mg/kg, ip after 60 mins (reference value: 314.96 +/- 9.442 bpm); format: organism-based; parameters: dose 40 mg/kg, route intraperitoneal; conditions: in vivo, 1 h
Rattus norvegicus [14] = test: Antihypertensive activity in Wistar rat assessed as mean arterial pressure at 40 mg/kg, ip after 60 mins (reference value: 195.11 +/- 0.531 mmHg); format: functional, Artery; conditions: route intraperitoneal
Rattus norvegicus [15] = test: Toxicity in anaesthetized-Wistar rat assessed as Q-T ECG interval at 40 mg/kg, ip after 15 mins (reference value: 79.4 +/- 1.270 ms); format: organism-based; parameters: dose 40 mg/kg, route intraperitoneal; conditions: in vivo, 0.25 h
Rattus norvegicus [16] = test: Toxicity in anaesthetized-Wistar rat assessed as QRS ECG interval at 40 mg/kg, ip after 60 mins (reference value: 19.3 +/- 0.873 ms); format: organism-based; parameters: dose 40 mg/kg, route intraperitoneal; conditions: in vivo, 1 h
Rattus norvegicus [17] = test: Toxicity in […] normotensive Wistar rat assessed as mean arterial pressure at 40 mg/kg, ip after 30 mins (reference value: 94.68 +/- 1.213 mmHg); format: organism-based, Artery; parameters: dose 40 mg/kg, route intraperitoneal; conditions: in vivo, 0.5 h
Rattus norvegicus [18] = test: Toxicity in […] normotensive Wistar rat assessed as mean arterial pressure at 40 mg/kg, ip measured immediately at 0 min (reference value: 94.21 +/- 2.065 mmHg); format: organism-based, Artery; parameters: dose 40 mg/kg, route intraperitoneal; conditions: in vivo, 0 h
Rattus norvegicus [19] = test: Toxicity in anaesthetized-Wistar rat assessed as Q-T ECG interval at 40 mg/kg, ip measured immediately at 0 min (reference value: 78.8 +/- 1.030 ms); format: organism-based; parameters: dose 40 mg/kg, route intraperitoneal; conditions: in vivo, 0 h
Rattus norvegicus [20] = test: Antiarrhythmic activity in barium chloride-induced Wistar rat assessed as increase in appearance time of arrhythmia at 40 mg/kg, ip administered 60 mins before barium chloride challenge (reference value: 129.4 +/- 4.373 sec); format: functional, Heart; conditions: route intraperitoneal
Rattus norvegicus [21] = test: Toxicity in […] normotensive Wistar rat assessed as mean arterial pressure at 40 mg/kg, ip after 60 mins (reference value: 95.07 +/- 1.973 mmHg); format: organism-based, Artery; parameters: dose 40 mg/kg, route intraperitoneal; conditions: in vivo, 1 h
Rattus norvegicus [22] = test: Toxicity in anaesthetized-Wistar rat assessed as Q-T ECG interval at 40 mg/kg, ip after 60 mins (reference value: 79.7 +/- 0.965 ms); format: organism-based; parameters: dose 40 mg/kg, route intraperitoneal; conditions: in vivo, 1 h
Rattus norvegicus [23] = test: Toxicity in anaesthetized-Wistar rat assessed as QRS ECG interval at 40 mg/kg, ip after 30 mins (reference value: 19.9 +/- 1.393 ms); format: organism-based; parameters: dose 40 mg/kg, route intraperitoneal; conditions: in vivo, 0.5 h
Rattus norvegicus [24] = test: Toxicity in anaesthetized-Wistar rat assessed as QRS ECG interval at 40 mg/kg, ip measured immediately at 0 min (reference value: 19.6 +/- 1.142 ms); format: organism-based; parameters: dose 40 mg/kg, route intraperitoneal; conditions: in vivo, 0 h
Rattus norvegicus [25] = test: Toxicity in anesthetized-normotensive Wistar rat assessed as heart rate at 40 mg/kg, ip measured immediately at 0 min (reference value: 316.62 +/- 9.643 bpm); format: organism-based; parameters: dose 40 mg/kg, route intraperitoneal; conditions: in vivo, 0 h
Rattus norvegicus [26] = test: Antihypertensive activity in Wistar rat assessed as mean arterial pressure at 40 mg/kg, ip measured immediately at 0 min (reference value: 194.08 +/- 1.962 mmHg); format: functional, Artery; conditions: route intraperitoneal
Rattus norvegicus [27] = test: Toxicity in anaesthetized-Wistar rat assessed as Q-T ECG interval at 40 mg/kg, ip after 30 mins (reference value: 78.3 +/- 0.860 ms); format: organism-based; parameters: dose 40 mg/kg, route intraperitoneal; conditions: in vivo, 0.5 h
Rattus norvegicus [28] = test: Antihypertensive activity in Wistar rat assessed as mean arterial pressure at 40 mg/kg, ip after 30 mins (reference value: 194.72 +/- 1.002 mmHg); format: functional, Artery; conditions: route intraperitoneal
Rattus norvegicus [29] = test: Antihypertensive activity in Wistar rat assessed as mean arterial pressure at 40 mg/kg, ip after 45 mins (reference value: 193.96 +/- 0.865 mmHg); format: functional, Artery; conditions: route intraperitoneal
Rattus norvegicus [30] = test: Toxicity in anaesthetized-Wistar rat assessed as P-Q ECG interval at 40 mg/kg, ip after 30 mins (reference value: […] +/- 0.927 ms); format: organism-based; parameters: dose 40 mg/kg, route intraperitoneal; conditions: in vivo, 0.5 h
Rattus norvegicus [31] = test: Toxicity in anaesthetized-Wistar rat assessed as P-Q ECG interval at 40 mg/kg, ip after 45 mins (reference value: 52.5 +/- 0.780 ms); format: organism-based; parameters: dose 40 mg/kg, route intraperitoneal; conditions: in vivo, 0.75 h
Rattus norvegicus [32] = test: Toxicity in anaesthetized-Wistar rat assessed as P-Q ECG interval at 40 mg/kg, ip measured immediately at 0 min (reference value: 52.4 +/- 0.927 ms); format: organism-based; parameters: dose 40 mg/kg, route intraperitoneal; conditions: in vivo, 0 h

Row | Structure (SMILES) | Activity (Rattus norvegicus [1]) [bpm] | Activity (Rattus norvegicus [2]) [min] | Activity (Rattus norvegicus [3]) [min] | Activity (Rattus norvegicus [4]) [min] | Activity (Rattus norvegicus [5]) [bpm] | Time (Rattus norvegicus [6]) [s] | Activity (Rattus norvegicus [7]) [min] | Activity (Rattus norvegicus [8]) [mmHg] | Activity (Rattus norvegicus [9]) [bpm] | Activity (Rattus norvegicus [10]) [min] | Activity (Rattus norvegicus [11]) [mmHg] | Activity (Rattus norvegicus [12]) [mmHg] | Activity (Rattus norvegicus [13]) [bpm] | Activity (Rattus norvegicus [14]) [mmHg] | Activity (Rattus norvegicus [15]) [min] | Activity (Rattus norvegicus [16]) [min] | Activity (Rattus norvegicus [17]) [mmHg] | Activity (Rattus norvegicus [18]) [mmHg] | Activity (Rattus norvegicus [19]) [min] | Time (Rattus norvegicus [20]) [s] | other results
1 | CCN(CC)CC(O)CN1C(=O)/C(=C\c2ccccc2)S/C1=N\c1ccccc1 (stereo unspecified) | 312.24 | 19.4 | 55.6 | 20.6 | 309.56 | 1142.4 | 52.2 | 63.51 | 274.66 | 84.8 | 172.98 | 79.23 | 312.28 | 159.87 | 81.4 | 21.4 | 68.93 | 91.39 | 80.4 | 343.1 | Activity (Rattus norvegicus [21]): 73.31 mmHg; Activity (Rattus norvegicus [22]): 86.4 ms; Activity (Rattus norvegicus [23]): 21.2 ms; Activity (Rattus norvegicus [24]): 18.4 min; Activity (Rattus norvegicus [25]): 319.65 bpm; Activity (Rattus norvegicus [26]): 194.43 mmHg; Activity (Rattus norvegicus [27]): 83.2 min; Activity (Rattus norvegicus [28]): 161.27 mmHg; Activity (Rattus norvegicus [29]): 119.43 mmHg; Activity (Rattus norvegicus [30]): 53.8 min; Activity (Rattus norvegicus [31]): 54.2 min; Activity (Rattus norvegicus [32]): 52 ms
2 | O=C1/C(=C\c2ccccc2)S/C(=N\c2ccccc2)N1CC(O)CN(c1ccccc1)c1ccccc1 (stereo unspecified) | 305.46 | 21.2 | 52.6 | 21.6 | 289.26 | 768.5 | 51.2 | 85.43 | 292.41 | 0.00119 | 183.55 | 87.32 | 302.92 | 169.93 | 71.5 | 20.4 | 85.08 | 94.09 | 70.2 | 234.8 | Activity (Rattus norvegicus [21]): 90.27 mmHg; Activity (Rattus norvegicus [22]): 70.7 ms; Activity (Rattus norvegicus [23]): 22.1 ms; Activity (Rattus norvegicus [24]): 20.3 min; Activity (Rattus norvegicus [25]): 316.34 bpm; Activity (Rattus norvegicus [26]): 194.26 mmHg; Activity (Rattus norvegicus [27]): 72.3 min; Activity (Rattus norvegicus [28]): 169.59 mmHg; Activity (Rattus norvegicus [29]): 159.27 mmHg; Activity (Rattus norvegicus [30]): 54.1 min; Activity (Rattus norvegicus [31]): 53.4 min; Activity (Rattus norvegicus [32]): 50.6 ms
3 | CCCN(CCC)CC(O)CN1C(=O)/C(=C\c2ccccc2)S/C1=N\c1ccccc1 (stereo unspecified) | 319.34 | 23.2 | 50.2 | 24.1 | 305.32 | 938.4 | 49.7 | 72.37 | 289.52 | 74.9 | 184.76 | 91.1 | 312.43 | 172.23 | 72.9 | 22.5 | 79.16 | 95.41 | 72.5 | 266.1 | Activity (Rattus norvegicus [21]): 88.98 mmHg; Activity (Rattus norvegicus [22]): 72.7 ms; Activity (Rattus norvegicus [23]): 23.8 ms; Activity (Rattus norvegicus [24]): 22.8 min; Activity (Rattus norvegicus [25]): 329.62 bpm; Activity (Rattus norvegicus [26]): 193.57 mmHg; Activity (Rattus norvegicus [27]): 73.4 min; Activity (Rattus norvegicus [28]): 170.1 mmHg; Activity (Rattus norvegicus [29]): 153.26 mmHg; Activity (Rattus norvegicus [30]): 51.3 min; Activity (Rattus norvegicus [31]): 52.4 min; Activity (Rattus norvegicus [32]): 49.4 ms
